Source: patent EP4759812A1 (Guangzhou Lupeng Pharmaceutical Co., Ltd., priority 2023, dated 2025)
Entries after “also recorded” stand apart in the source; their conditions may differ.

Tests used:
Format in all cases: physicochemical
Long-term stability test = conditions: 25±2°C, 60±5 RH %; for Crystal form: XRPD
[1] = Influencing factor stability: high-temperature test; conditions: Temperature 60°C; for Purity: HPLC, starting purity: Crystal form VI 99.32%, Amorphous form 98.80%, Crystal form XIII 99.01%; for Crystal form: XRPD
Description: (§1) The crystal form results under different conditions were identified by XRPD analysis, and the purity results under different conditions were identified by HPLC analysis.
(§2) The above samples were then taken on days 5, 10, 15, and 30, respectively. Their crystal forms were tested by adopting X-ray powder diffraction (XRPD), and the sample purities were tested by adopting HPLC. […]

[2] = Influencing factor stability: light exposure test; conditions: Visible light 4500 Lux ± 500 Lux; for Crystal form: ultraviolet light 1.7 W*h/m^2 (25°C, RH 60%±5%), XRPD; for Purity: HPLC, starting purity: Crystal form VI 99.32%, Amorphous form 98.80%, Crystal form XIII 99.01%
Description: as §1, §2

[3] = Morphological comparison under polarizing light microscope
[4] = Dynamic vapor sorption (DVS) experiment; conditions: for Hygroscopicity: class per Chinese Pharmacopoeia 2010 guidance (25±0.2°C, 80% relative humidity)
[5] = Influencing factor stability: high-humidity test; conditions: Temperature 25°C, relative humidity 92.5±5%; for Purity: HPLC, starting purity: Crystal form VI 99.32%, Amorphous form 98.80%, Crystal form XIII 99.01%; for Crystal form: XRPD
Description: as §1, §2

[6] = Accelerated stability test; conditions: 40±2°C, 75±5 RH %; for Crystal form: XRPD
[7] = Stability test in pure water and buffer solution (suspension, XRPD); conditions: 25°C, stirred 24 h, solid by XRPD
Description: The suspensions were stirred at 25°C for 24 h, and filtered to obtain the solids. Samples were taken for XRPD measurement. […]

- Purity (Long-term stability test; 0 days): 99.32%
- Crystal form (Long-term stability test; 0 days): Crystal form VI
- Purity (Long-term stability test; 1 month): 99.31%
- Crystal form (Long-term stability test; 1 month): Crystal form VI
- Purity (Long-term stability test; 6 months): 99.35%
- Crystal form (Long-term stability test; 6 months): Crystal form VI
- Purity (Long-term stability test; 12 months): 99.28%
- Crystal form (Long-term stability test; 12 months): Crystal form VI
- Purity (Long-term stability test; 18 months): 99.31%
- Crystal form (Long-term stability test; 18 months): Crystal form VI
- Purity (Long-term stability test; 24 months): 99.30%
- Crystal form (Long-term stability test; 24 months): Crystal form VI
- Crystal form (Long-term stability test; 24 months, listed as crystal form VI): no change in crystal form
- Purity ([1]; 5 days): 99.31%
- Crystal form ([1]; 5 days): Crystal form VI
- Purity ([1]; 10 days): 99.25%
- Crystal form ([1]; 10 days): Crystal form VI
- Purity ([1]; 15 days): 98.96%
- Crystal form ([1]; 15 days): Crystal form VI
- Purity ([1]; 30 days): 98.72%
- Crystal form ([1]; 30 days): Crystal form VI
- Crystal form ([1]; 30 days, listed as crystal form VI): no change in crystal form
- Crystal form ([2]; 5 days): Crystal form VI
- Crystal form ([2]; 10 days): Crystal form VI
- Crystal form ([2]; 15 days): Crystal form VI
- Crystal form ([2]; 30 days): Crystal form VI
- Purity ([2]; ultraviolet light 1.7 W*h/m^2, 5 days): 99.17%
- Purity ([2]; ultraviolet light 1.7 W*h/m^2, 10 days): 99.23%
- Purity ([2]; ultraviolet light 1.7 W*h/m^2, 15 days): 98.71%
- Purity ([2]; ultraviolet light 1.7 W*h/m^2, 30 days): 98.14%
- crystal morphology ([3]; polarizing light microscope): long rod-shaped
- Adsorption weight gain (80% RH) ([4]; DVS, 80% RH): 0.79%
- Adsorption weight gain (95% RH) ([4]; DVS, 95% RH): 1.34%
- Purity ([5]; 5 days): 99.35%
- Crystal form ([5]; 5 days): Crystal form VI
- Purity ([5]; 10 days): 99.35%
- Crystal form ([5]; 10 days): Crystal form VI
- Purity ([5]; 15 days): 99.32%
- Crystal form ([5]; 15 days): Crystal form VI
- Purity ([5]; 30 days): 99.31%
- Crystal form ([5]; 30 days): Crystal form VI
- Purity ([6]; 0 days): 99.32%
- Crystal form ([6]; 0 days): Crystal form VI
- Purity ([6]; 1 month): 99.18%
- Crystal form ([6]; 1 month): Crystal form VI
- Purity ([6]; 3 months): 98.98%
- Crystal form ([6]; 3 months): Crystal form VI
- Purity ([6]; 6 months): 98.54%
- Crystal form ([6]; 6 months): Crystal form VI
- Crystal form ([6]; 6 months, listed as crystal form VI): no change in crystal form
- Suspension result ([7]; Pure water): Crystal form VI
- Suspension result ([7]; pH 4.5 buffer solution): Crystal form VI
- Suspension result ([7]; pH 6.8 buffer solution): Crystal form VI
Compound: C=CC(=O)Nc1cc(Nc2nc(-c3ccnc(N4CCn5c(cc6c5CC(C)(C)C6)C4=O)c3CO)cn(C)c2=O)ccc1N1CCN(C2CCOCC2)C[C@@H]1C [Crystal form VI, (S)-N-(5-((6-(2-(7,7-dimethyl-1-oxo-1,3,4,6,7,8-hexahydro-2H-cyclopenta[4,5]pyrrolo[1,2-a]pyrazin-2-yl)-3-(hydroxymethyl)pyridin-4-yl)-4-methyl-3-oxo-3,4-dihydropyrazin-2-yl)amino)-2-(2-methyl-4-(tetrahydro-2H-pyran-4-yl)piperazin-1-yl)phenyl)acrylamide]
- dispersibility and flowability / agglomeration and caking ([3]; judged from polarizing light microscope images): relatively good dispersibility and flowability
- Hygroscopicity [4]: Slightly hygroscopic (hygroscopic weight gain is less than 2% but not less than 0.2%)
- Hygroscopicity ([4]; listed as crystal form VI): slightly hygroscopic; also recorded: slight hygroscopicity
